The values below come from US20240279278A1, “NMU RECEPTOR 2 AGONISTS” (Boehringer Ingelheim International GmbH, priority 2023, published 2024).

Residues, ends and D or L forms follow the SMILES beside them.

One test concerns the target T1, human NMUR1 receptor (Homo sapiens, UniProt Q9HB89).
T1 construct: expressed in transfected cells; host or cells: CHO-K1
T1 sequence (Q9HB89 1-426): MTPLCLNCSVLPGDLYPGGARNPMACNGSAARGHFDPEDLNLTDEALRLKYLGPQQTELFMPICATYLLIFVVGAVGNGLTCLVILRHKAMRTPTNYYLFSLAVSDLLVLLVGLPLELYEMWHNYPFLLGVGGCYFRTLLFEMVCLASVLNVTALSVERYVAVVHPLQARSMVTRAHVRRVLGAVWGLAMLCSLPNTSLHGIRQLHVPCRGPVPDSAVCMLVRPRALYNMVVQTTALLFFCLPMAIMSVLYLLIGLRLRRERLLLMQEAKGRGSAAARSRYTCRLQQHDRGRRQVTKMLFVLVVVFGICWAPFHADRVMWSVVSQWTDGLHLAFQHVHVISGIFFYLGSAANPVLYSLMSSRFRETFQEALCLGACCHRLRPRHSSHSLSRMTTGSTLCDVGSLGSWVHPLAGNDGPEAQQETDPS
As to the kind of experiment: IP1 Gq HTRF assay, activation of human NMUR1 in buffer. Format: cell-based. As to conditions: CHO-K1 cells expressing human NMUR1, stimulation buffer with 0.1% BSA; read-out: EC50 (hNMUR1) buffer. A digest of the protocol: (§1)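 CHO-K1 cells stably expressing human NMUR1 or NMUR2, seeded 24 h before assay, stimulated with peptide agonists (8-point dose-response, 1% DMSO final) in HEPES/HBSS buffer with 50 mM LiCl and 0.1% BSA, pH 7.4, 1 h at 37 °C. IP1 accumulation read by HTRF competition (665/620 nm); EC50 from 4-parameter sigmoidal fit.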

In test [1] the target is T2, human NMUR2 receptor (Homo sapiens, UniProt Q9GZQ4). As to the kind of experiment: IP1 Gq HTRF assay, activation of human NMUR2 in buffer. The arrangement: expressed in transfected cells; host or cells: CHO-K1. Particulars: CHO-K1 cells expressing human NMUR2, stimulation buffer with 0.1% BSA; read-out: EC50 (hNMUR2) buffer. Format: cell-based. The essentials: as §1
(TR-FRET usually uses a lanthanide donor and a delayed reading to cut background.)

Test [2] deals with T2, human NMUR2 receptor. The experiment in a line: IP1 Gq HTRF assay, activation of human NMUR2 in human plasma. In kind it is cell-based. Particulars: CHO-K1 cells expressing human NMUR2, 100% human plasma; read-out: EC50 (hNMUR2) human plasma. The arrangement: expressed in transfected cells; host or cells: CHO-K1. The essentials: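 CHO-K1 cells stably expressing human NMUR2 exposed to peptide agonists (8-point dose-response) in 100% human plasma with 50 mM LiCl, 1% DMSO, for 1 h at 37° C. IP1 accumulation read by HTRF competition (665/620 nm ratio). EC50 from 4-parameter sigmoidal fit.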

For test [3], the target named is T3, human neuromedin U receptor 1 (human, UniProt Q9HB89 24-426).
T3 sequence (looked up): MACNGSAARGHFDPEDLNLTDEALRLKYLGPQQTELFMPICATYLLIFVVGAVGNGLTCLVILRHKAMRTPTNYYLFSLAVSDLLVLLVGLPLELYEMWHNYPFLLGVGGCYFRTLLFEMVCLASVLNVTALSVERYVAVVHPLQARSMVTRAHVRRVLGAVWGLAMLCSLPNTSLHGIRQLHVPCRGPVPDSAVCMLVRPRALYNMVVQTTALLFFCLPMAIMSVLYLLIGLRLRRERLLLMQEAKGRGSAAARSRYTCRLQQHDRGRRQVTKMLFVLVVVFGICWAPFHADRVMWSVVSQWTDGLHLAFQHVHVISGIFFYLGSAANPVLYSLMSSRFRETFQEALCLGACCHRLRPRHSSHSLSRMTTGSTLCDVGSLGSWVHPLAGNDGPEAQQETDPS
The experiment in a line: cell-based or functional assay.

T2 sequence (Q9GZQ4 whole entry): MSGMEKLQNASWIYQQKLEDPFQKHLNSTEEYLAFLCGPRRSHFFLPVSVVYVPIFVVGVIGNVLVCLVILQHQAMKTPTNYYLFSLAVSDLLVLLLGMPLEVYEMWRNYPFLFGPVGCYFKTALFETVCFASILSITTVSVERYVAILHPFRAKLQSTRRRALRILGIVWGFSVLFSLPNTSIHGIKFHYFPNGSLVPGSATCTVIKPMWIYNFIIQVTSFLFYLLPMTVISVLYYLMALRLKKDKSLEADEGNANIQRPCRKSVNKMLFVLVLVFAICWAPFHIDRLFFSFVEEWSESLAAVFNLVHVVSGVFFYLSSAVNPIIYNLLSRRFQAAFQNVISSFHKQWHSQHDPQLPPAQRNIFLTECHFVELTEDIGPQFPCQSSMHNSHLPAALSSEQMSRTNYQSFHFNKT

Usually EC50 stands for the concentration needed to bring the measured effect to its halfway point. In the case of `CCCC[C@H](NC(=O)[C@H](CC(C)C)N(C)C(=O)[C@H](Cc1ccccc1)NC(=O)[C@H](Cc1ccc(O)cc1)NC(=O)CN1CCN(C(=O)CN(C)C(=O)CN(C)C(=O)CN(C)C(=O)CN(C)C(=O)CN(C)C(=O)CN(C)C(=O)CN(C)C(=O)CN(C)C(=O)CN(C)C(=O)CN(C)C(=O)CN(C)C(=O)CN(C)C(=O)CN(C)C(=O)CN(C)C(=O)CN(C)C(=O)CC[C@H](NC(=O)CC[C@H](NC(=O)CC[C@H](NC(=O)CCCCCCCCCCCCCCCCC(=O)O)C(=O)O)C(=O)O)C(=O)O)CC1)C(=O)N[C@@H](CCCNC(=N)N)C(=O)N1CCC[C@H]1C(=O)N[C@@H](CCCNC(=N)N)C(=O)NCC(N)=O` [Compound 75, C18DA-gGlu3-Sar15-PipAc-Tyr-Phe-NMeLeu-Nle-Arg-Pro-Arg-Gly-NH2] (HELM PEPTIDE1{[O=C(O)CCCCCCCCCCCCCCCCC(=O)[*:2]].[gGlu].[gGlu].[gGlu].[Sar].[Sar].[Sar].[Sar].[Sar].[Sar].[Sar].[Sar].[Sar].[Sar].[Sar].[Sar].[Sar].[Sar].[Sar].[O=C(CN1CCN([*:1])CC1)[*:2]].Y.F.[meL].[Nle].R.P.R.G.[am]}$$$$V2.0), the EC50 on human NMUR1 receptor is 130 nM; on human NMUR2 receptor [1] it was 0.7 nM; on human NMUR2 receptor [2], 3.5 nM.

Turning to `CCCC[C@H](NC(=O)[C@H](CC(C)C)N(C)C(=O)[C@H](Cc1ccccc1)NC(=O)[C@H](Cc1ccc(O)cc1)NC(=O)CN1CCN(C(=O)CN(C)C(=O)CN(C)C(=O)CN(C)C(=O)CN(C)C(=O)CN(C)C(=O)CN(C)C(=O)CN(C)C(=O)CN(C)C(=O)CN(C)C(=O)CN(C)C(=O)CN(C)C(=O)CN(C)C(=O)CN(C)C(=O)CN(C)C(=O)CN(C)C(=O)CC[C@H](NC(=O)CC[C@H](NC(=O)CC[C@H](NC(=O)CCCCCCCCCCCCCCCCC(=O)O)C(=O)O)C(=O)O)C(=O)O)CC1)C(=O)N[C@@H](CCN)C(=O)N1CCC[C@H]1C(=O)N[C@@H](CCCNC(=N)N)C(=O)NCC(N)=O` [Compound 76, C18DA-gGlu3-Sar15-PipAc-Tyr-Phe-NMeLeu-Nle-Dbu-Pro-Arg-Gly-NH2] (HELM PEPTIDE1{[O=C(O)CCCCCCCCCCCCCCCCC(=O)[*:2]].[gGlu].[gGlu].[gGlu].[Sar].[Sar].[Sar].[Sar].[Sar].[Sar].[Sar].[Sar].[Sar].[Sar].[Sar].[Sar].[Sar].[Sar].[Sar].[O=C(CN1CCN([*:1])CC1)[*:2]].Y.F.[meL].[Nle].[Dab].P.R.G.[am]}$$$$V2.0), the half-maximal effective concentration (EC50) on human NMUR1 receptor stood at 1100 nM; at human NMUR2 receptor [1], 1.1 nM; on human NMUR2 receptor [2] it was 6.2 nM.

In the case of `CCCC[C@H](NC(=O)[C@H](CC(C)C)N(C)C(=O)[C@H](Cc1ccccc1)NC(=O)[C@H](Cc1ccc(O)cc1)NC(=O)CN1CCN(C(=O)CN(C)C(=O)CN(C)C(=O)CN(C)C(=O)CN(C)C(=O)CN(C)C(=O)CN(C)C(=O)CN(C)C(=O)CN(C)C(=O)CN(C)C(=O)CN(C)C(=O)CN(C)C(=O)CN(C)C(=O)CN(C)C(=O)CN(C)C(=O)CN(C)C(=O)CC[C@H](NC(=O)CC[C@H](NC(=O)CC[C@H](NC(=O)CCCCCCCCCCCCCCCCC(=O)O)C(=O)O)C(=O)O)C(=O)O)CC1)C(=O)N[C@@H](CCN)C(=O)N(C)[C@@H](C)C(=O)N[C@@H](CCCNC(=N)N)C(=O)NCC(N)=O` [Compound 79, C18DA-gGlu3-Sar15-PipAc-Tyr-Phe-NMeLeu-Nle-Dbu-NMeAla-Arg-Gly-NH2] (HELM PEPTIDE1{[O=C(O)CCCCCCCCCCCCCCCCC(=O)[*:2]].[gGlu].[gGlu].[gGlu].[Sar].[Sar].[Sar].[Sar].[Sar].[Sar].[Sar].[Sar].[Sar].[Sar].[Sar].[Sar].[Sar].[Sar].[Sar].[O=C(CN1CCN([*:1])CC1)[*:2]].Y.F.[meL].[Nle].[Dab].[meA].R.G.[am]}$$$$V2.0), the EC50 is > 1000 nM on human NMUR1 receptor, 1.3 nM on human NMUR2 receptor [1] and 7 nM on human NMUR2 receptor [2].

B1: C20DA-gGlu3-Sar15-AEPipAc-Tyr-Phe-NMeLeu-Nle-Orn-NMeAla-Arg-Gly-NH2 (peptide)
peptide: EEEXXXXXXXXXXXXXXXXYFLXXARG
HELM: PEPTIDE1{[O=C(O)CCCCCCCCCCCCCCCCCCC(=O)[*:2]].[gGlu].[gGlu].[gGlu].[Sar].[Sar].[Sar].[Sar].[Sar].[Sar].[Sar].[Sar].[Sar].[Sar].[Sar].[Sar].[Sar].[Sar].[Sar].[O=C(CN1CCN(CCN[*:1])CC1)[*:2]].Y.F.[meL].[Nle].[Orn].[meA].R.G.[am]}$$$$V2.0
SMILES: CCCC[C@H](NC(=O)[C@H](CC(C)C)N(C)C(=O)[C@H](Cc1ccccc1)NC(=O)[C@H](Cc1ccc(O)cc1)NC(=O)CN1CCN(CCNC(=O)CN(C)C(=O)CN(C)C(=O)CN(C)C(=O)CN(C)C(=O)CN(C)C(=O)CN(C)C(=O)CN(C)C(=O)CN(C)C(=O)CN(C)C(=O)CN(C)C(=O)CN(C)C(=O)CN(C)C(=O)CN(C)C(=O)CN(C)C(=O)CN(C)C(=O)CC[C@H](NC(=O)CC[C@H](NC(=O)CC[C@H](NC(=O)CCCCCCCCCCCCCCCCCCC(=O)O)C(=O)O)C(=O)O)C(=O)O)CC1)C(=O)N[C@@H](CCCN)C(=O)N(C)[C@@H](C)C(=O)N[C@@H](CCCNC(=N)N)C(=O)NCC(N)=O
On to B1, for which the “EC50 (hNMUR1) buffer” value in test [3] is > 1000 nM.

B2: C20DA-gGlu4-Sar15-AEPipAc-Tyr-Phe-NMeLeu-Nle-Dbu-Pro-Arg-Gly-NH2 (peptide)
peptide: EEEEXXXXXXXXXXXXXXXXYFLXXPRG
HELM: PEPTIDE1{[O=C(O)CCCCCCCCCCCCCCCCCCC(=O)[*:2]].[gGlu].[gGlu].[gGlu].[gGlu].[Sar].[Sar].[Sar].[Sar].[Sar].[Sar].[Sar].[Sar].[Sar].[Sar].[Sar].[Sar].[Sar].[Sar].[Sar].[O=C(CN1CCN(CCN[*:1])CC1)[*:2]].Y.F.[meL].[Nle].[Dab].P.R.G.[am]}$$$$V2.0
SMILES: CCCC[C@H](NC(=O)[C@H](CC(C)C)N(C)C(=O)[C@H](Cc1ccccc1)NC(=O)[C@H](Cc1ccc(O)cc1)NC(=O)CN1CCN(CCNC(=O)CN(C)C(=O)CN(C)C(=O)CN(C)C(=O)CN(C)C(=O)CN(C)C(=O)CN(C)C(=O)CN(C)C(=O)CN(C)C(=O)CN(C)C(=O)CN(C)C(=O)CN(C)C(=O)CN(C)C(=O)CN(C)C(=O)CN(C)C(=O)CN(C)C(=O)CC[C@H](NC(=O)CC[C@H](NC(=O)CC[C@H](NC(=O)CC[C@H](NC(=O)CCCCCCCCCCCCCCCCCCC(=O)O)C(=O)O)C(=O)O)C(=O)O)C(=O)O)CC1)C(=O)N[C@@H](CCN)C(=O)N1CCC[C@H]1C(=O)N[C@@H](CCCNC(=N)N)C(=O)NCC(N)=O
On to B2, for which the “EC50 (hNMUR1) buffer” value in test [3] stood at 770 nM.

B3: C18DA-gGlu3-Sar12-AEPipAc-Tyr-Phe-NMeLeu-Nle-NMeArg-Pro-Arg-Gly-NH2 (peptide)
peptide: EEEXXXXXXXXXXXXXYFLXRPRG
HELM: PEPTIDE1{[O=C(O)CCCCCCCCCCCCCCCCC(=O)[*:2]].[gGlu].[gGlu].[gGlu].[Sar].[Sar].[Sar].[Sar].[Sar].[Sar].[Sar].[Sar].[Sar].[Sar].[Sar].[Sar].[O=C(CN1CCN(CCN[*:1])CC1)[*:2]].Y.F.[meL].[Nle].[meR].P.R.G.[am]}$$$$V2.0
SMILES: CCCC[C@H](NC(=O)[C@H](CC(C)C)N(C)C(=O)[C@H](Cc1ccccc1)NC(=O)[C@H](Cc1ccc(O)cc1)NC(=O)CN1CCN(CCNC(=O)CN(C)C(=O)CN(C)C(=O)CN(C)C(=O)CN(C)C(=O)CN(C)C(=O)CN(C)C(=O)CN(C)C(=O)CN(C)C(=O)CN(C)C(=O)CN(C)C(=O)CN(C)C(=O)CN(C)C(=O)CC[C@H](NC(=O)CC[C@H](NC(=O)CC[C@H](NC(=O)CCCCCCCCCCCCCCCCC(=O)O)C(=O)O)C(=O)O)C(=O)O)CC1)C(=O)N(C)[C@@H](CCCNC(=N)N)C(=O)N1CCC[C@H]1C(=O)N[C@@H](CCCNC(=N)N)C(=O)NCC(N)=O
Regarding B3, in test [3], the “EC50 (hNMUR1) buffer” value came to 190 nM.
